In ChEMBL document CHEMBL5137114, “Discovery of IHMT-MST1-58 as a Novel, Potent, and Selective MST1 Inhibitor for the Treatment of Type 1/2 Diabetes” (J Med Chem, 2022):

The compounds below were run on RAW264.7 (assay: Inhibition of MST1 in mouse RAW264.7 cells assessed as reduction in H2O2-stimulated MOB1 phosphorylation at T35 residue preincubated for 2 hrs followed by H2O2 addition for 30 mins by Western blotting analysis). Conditions: dose 0.1-10 µM, time 2.5 hrs, DDE = dose-dependent effect.
Format: cell-based
For `CN1C(=O)c2sccc2N(C)c2nc(Nc3ccc(S(N)(=O)=O)cc3)ncc21`, the inhibition was “Dde”.

These compounds were tested on RAW264.7 (assay: Inhibition of MST1 in mouse RAW264.7 cells assessed as reduction in H2O2-stimulated MST1/MST2 autophosphorylation at T183/T180 residues preincubated for 2 hrs followed by H2O2 addition for 30 mins by Western blotting analysis). Conditions: dose 0.1-10 µM, time 2.5 hrs, DDE = dose-dependent effect.
Format: cell-based
In the case of `CN1C(=O)c2sccc2N(C)c2nc(Nc3ccc(S(N)(=O)=O)cc3)ncc21`, the inhibition is reported as “Dde”.

What follows are compounds tested against T1, Serine/threonine-protein kinase 4 (Homo sapiens, UniProt Q13043) (assay: Inhibition of recombinant full length N-terminal GST -tagged human MST1 expressed in baculovirus infected Sf9 insect cells using KKSRGDYMTMQIG as substrate incubated for 1 hr in presence of ATP by ADP-Glo luminescent assay). Conditions: not given.
T1 sequence (Q13043 whole entry): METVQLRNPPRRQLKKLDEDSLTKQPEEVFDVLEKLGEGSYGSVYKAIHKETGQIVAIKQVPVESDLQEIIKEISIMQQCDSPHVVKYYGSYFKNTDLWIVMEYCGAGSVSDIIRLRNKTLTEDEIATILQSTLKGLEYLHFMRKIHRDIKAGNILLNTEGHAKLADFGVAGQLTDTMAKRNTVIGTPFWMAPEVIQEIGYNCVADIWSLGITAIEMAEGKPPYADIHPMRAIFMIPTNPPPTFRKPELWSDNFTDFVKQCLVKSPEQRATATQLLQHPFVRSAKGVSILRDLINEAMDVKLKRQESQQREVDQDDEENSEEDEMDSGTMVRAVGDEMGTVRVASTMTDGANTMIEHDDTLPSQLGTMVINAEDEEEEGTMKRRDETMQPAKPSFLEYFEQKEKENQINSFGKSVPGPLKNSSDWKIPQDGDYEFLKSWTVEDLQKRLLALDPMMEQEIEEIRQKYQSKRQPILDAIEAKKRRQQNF
`COc1cccc(C2C(=O)N(C)c3cnc(Nc4ccc(S(N)(=O)=O)cc4)nc3N2C)c1` (stereo not given) was tested, and the IC50 was 954 nM. For `CC(C)C1C(=O)N(C)c2cnc(Nc3ccc(S(N)(=O)=O)cc3)nc2N1C` (stereo not given), the IC50 was 254 nM. In the case of `CNS(=O)(=O)c1ccc(Nc2ncc3c(n2)N(C)C(c2c(F)cccc2F)C(=O)N3C)cc1` (stereo not given), the IC50 is reported as 318 nM. Compound `CN1C(=O)C(c2ccccc2)N(C)c2nc(Nc3ccc(S(N)(=O)=O)cc3)ncc21` (stereo not given) has an IC50 of 383 nM. In the case of `CCC1C(=O)N(C)c2cnc(Nc3ccc(S(N)(=O)=O)cc3)nc2N1C` (stereo not given), the IC50 is reported as 479 nM. In the case of `CC1C(=O)N(C)c2cnc(Nc3ccc(S(N)(=O)=O)cc3)nc2N1C` (stereo not given), the IC50 is reported as 313 nM. Compound `Cc1c(F)cccc1C1C(=O)N(C)c2cnc(Nc3ccc(S(N)(=O)=O)cc3)nc2N1C` (stereo not given) has an IC50 of 419 nM. In the case of `CN1CC(=O)N(C)c2cnc(Nc3ccc(S(N)(=O)=O)cc3)nc21`, the IC50 is reported as 495 nM. Work on `CN1C(=O)C(c2cccc(Cl)c2)N(C)c2nc(Nc3ccc(S(N)(=O)=O)cc3)ncc21` (stereo not given) yielded an IC50 of 989 nM. Compound `CN1C(=O)C(c2ccc(F)cc2)N(C)c2nc(Nc3ccc(S(N)(=O)=O)cc3)ncc21` (stereo not given) has an IC50 of 1770 nM. With `CN1C(=O)C(Cc2ccccc2)N(C)c2nc(Nc3ccc(S(N)(=O)=O)cc3)ncc21` (stereo not given) the IC50 was over 10000 nM. For `Cc1ccccc1C1C(=O)N(C)c2cnc(Nc3ccc(C(C)(C)C#N)cc3)nc2N1C` (stereo not given), the IC50 was 153 nM. `CN1C(=O)C(c2ccccc2Br)N(C)c2nc(Nc3ccc(S(N)(=O)=O)cc3)ncc21` (stereo not given) was tested, and the IC50 was 57 nM. `CN1C(=O)C(c2cccc(C(F)(F)F)c2)N(C)c2nc(Nc3ccc(S(N)(=O)=O)cc3)ncc21` (stereo not given) gave an IC50 of 2710 nM. In the case of `Cc1ccc(F)cc1C1C(=O)N(C)c2cnc(Nc3ccc(S(N)(=O)=O)cc3)nc2N1C` (stereo not given), the IC50 is reported as 168 nM. For `CCNS(=O)(=O)c1ccc(Nc2ncc3c(n2)N(C)C(c2ccccc2C)C(=O)N3C)cc1` (stereo not given), the IC50 was 119 nM. With `Cc1ccccc1C1C(=O)N(C)c2cnc(Nc3ccc(C4(C#N)CC4)cc3)nc2N1C` (stereo not given) the IC50 was 256 nM. With `Cc1ccccc1C1C(=O)N(C)c2cnc(Nc3ccc(S(=O)(=O)NCC4CC4)cc3)nc2N1C` (stereo not given) the IC50 was 60 nM. Compound `CN1C(=O)C(c2ccccc2Cl)N(C)c2nc(Nc3ccc(S(N)(=O)=O)cc3)ncc21` (stereo not given) has an IC50 of 129 nM. `CN1C(=O)c2sccc2N(C)c2nc(Nc3ccc(S(N)(=O)=O)cc3)ncc21` showed an IC50 of 104 nM. `CNS(=O)(=O)c1ccc(Nc2ncc3c(n2)N(C)C(c2ccccc2C)C(=O)N3C)cc1` (stereo not given) gave an IC50 of 104 nM. Work on `CN1C(=O)C2(CCCCC2)N(C)c2nc(Nc3ccc(S(N)(=O)=O)cc3)ncc21` yielded an IC50 of 272 nM. Compound `Cc1ccccc1C1C(=O)N(C)c2cnc(Nc3ccc(S(=O)(=O)NC4CC4)cc3)nc2N1C` (stereo not given) has an IC50 of 53 nM. `CN1C(=O)C(c2c(F)cccc2F)N(C)c2nc(Nc3ccc(S(=O)(=O)N(C)C)cc3)ncc21` (stereo not given) gave an IC50 of 181 nM. `COc1ccccc1C1C(=O)N(C)c2cnc(Nc3ccc(S(N)(=O)=O)cc3)nc2N1C` (stereo not given) gave an IC50 of 251 nM. With `Cc1ccccc1C1C(=O)N(C)c2cnc(Nc3ccc(S(=O)(=O)N(C)C)cc3)nc2N1C` (stereo not given) the IC50 was 219 nM. For `CN1C(=O)C(CC2CC2)N(C)c2nc(Nc3ccc(S(N)(=O)=O)cc3)ncc21` (stereo not given), the IC50 was 211 nM. With `CCc1ccccc1C1C(=O)N(C)c2cnc(Nc3ccc(S(N)(=O)=O)cc3)nc2N1C` (stereo not given) the IC50 was 51 nM.
